Ten compounds from US5874529A, “Conformationally constrained backbone cyclized peptide analogs” (Peptor Ltd., priority 1994, dated 1999) can be followed below.

Read-outs that look alike come from different tables or passages of the source. Numbered stars: 1 amine (or outer) side, 2 acyl side, 3 side chain; on linkers, the order of the positions; unused ones are H or OH. Bridge positions count the residues as written; N and C are the ends. Square brackets hold non-standard residues; d marks the D form. Peptide text beside a SMILES is read from it. NGly(3-aminopropyl) = O=C(CN(CCCN[*:3])[*:1])[*:2]; N(2-Aminoethyl)Gly = O=C(CN(CCN[*:3])[*:1])[*:2]; N(CH2CH2CO)Gly = O=C(CN(CCC(=O)[*:3])[*:1])[*:2]

The target in one series is T1, BK2 receptors (Cavia porcellus, UniProt O70526).
T1 construct: This tissue contains predominantly BK2 receptors; from tissue; host or cells: guinea-pig ileum, longitudinal muscle layer with adhering mesenteric plexus
T1 sequence (O70526 1-372): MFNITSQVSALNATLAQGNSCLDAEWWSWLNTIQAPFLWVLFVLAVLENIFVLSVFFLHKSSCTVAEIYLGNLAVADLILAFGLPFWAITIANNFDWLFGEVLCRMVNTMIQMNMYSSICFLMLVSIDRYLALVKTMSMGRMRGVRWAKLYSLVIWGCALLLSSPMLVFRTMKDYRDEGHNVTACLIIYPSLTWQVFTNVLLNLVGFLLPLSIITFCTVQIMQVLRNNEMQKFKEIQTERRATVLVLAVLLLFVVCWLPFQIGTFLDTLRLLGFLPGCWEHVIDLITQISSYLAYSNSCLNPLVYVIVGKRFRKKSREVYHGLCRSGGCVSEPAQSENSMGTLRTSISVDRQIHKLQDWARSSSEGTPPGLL
Briefly: Bradykinin antagonist assay, guinea-pig ileum contraction. On the procedure: The ileum of the guinea-pig was selected as the preparation for the bioassay. This tissue contains predominantly BK2 receptors. The preparation consists of the longitudinal muscle layer with the adhering mesenteric plexus. The isolated preparation was kept in Krebs solution and contractions were measured with an isometric force transducer. […] Atropine (1 μM) was always present.

A further series addresses T2, bradykinin receptors (Rattus norvegicus, UniProt P25023).
T2 construct: PC 12 cells that express bradykinin receptors; endogenous in cells; host or cells: PC12 cells
T2 sequence (P25023 1-396): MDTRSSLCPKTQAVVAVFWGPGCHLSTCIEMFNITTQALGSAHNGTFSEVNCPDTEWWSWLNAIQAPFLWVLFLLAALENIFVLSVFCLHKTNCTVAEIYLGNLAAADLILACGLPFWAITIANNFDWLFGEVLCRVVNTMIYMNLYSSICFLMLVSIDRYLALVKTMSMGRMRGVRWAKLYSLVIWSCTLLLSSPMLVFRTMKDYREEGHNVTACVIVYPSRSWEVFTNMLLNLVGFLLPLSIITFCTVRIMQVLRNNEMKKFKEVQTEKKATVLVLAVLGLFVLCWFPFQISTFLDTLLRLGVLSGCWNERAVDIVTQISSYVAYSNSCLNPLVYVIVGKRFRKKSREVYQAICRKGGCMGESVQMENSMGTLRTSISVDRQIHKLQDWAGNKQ
Briefly: Bradykinin antagonist assay, (3H)dopamine release from PC 12 cells. Format: cell-based. To be noted: At 10^-6 M; (3H)dopamine release from PC 12 cells stimulated by bradykinin. On the procedure:
Novel backbone cyclized peptide analogs of the present invention were assayed in vitro for bradykinin antagonist activity by protection of (^3 H) dopamine release from PC 12 cells that express bradykinin receptors. PC12 cells were grown in Dulbecco Modified Eagle's medium with high glucose, supplemented with 10% horse serum, 5% fetal calf serum, 130 units/ml penicillin and 0.1 mg/ml streptomycin. For experiments, cells were removed from the medium using 1 mmole EDTA and replated on collagen coated-12-well plates and assayed 24 hr later. Release of (^3 H)dopamine was determined as follows: cells were incubated for 1.5 hr at 37° C. with 0.5 ml of growth medium and […] (^3 H)DA (41 Ci/mmole) and […] pargyline followed by extensive washing with medium (3×1 ml) and release buffer consisting of (mM): 130 NaCl; 5 KCl; 25 NaHCO3; 1 NaH2 PO4; 10 glucose and 1.8 CaCl2. In a typical experiment, cells were incubated with 0.5 ml buffer for 5 consecutive incubation periods of 3 min each at 37° C. Spontaneous (^3 H)DA release was measured by collecting the medium released by the cells successively for the first 3 min period. Antagonists were added to the cells 3 min prior to stimulation (at the second period), and stimulation of (^3 H)DA release by 100 nmole of bradykinin are monitored during the 3 period by 60 mmole KCl. The remaining of the (^3 H)DA was extracted from the cells by over night incubation with 0.5 ml 0.1N HCl. (^3 H)DA release during each 3 min period was expressed as a % of the total (^3 H)DA content of the cells. Net evoked release was calculated from (^3 H)DA release during stimulation period after subtracting basal (^3 H)DA release in the preceding baseline period if not indicated otherwise.

Series [1] addresses T3, Somatostatin Receptor (SSTR) Subtype SSTR 5 (Homo sapiens, UniProt P35346).
T3 construct: expressed in transfected cells; host or cells: CHO cells
Briefly: Inhibition of radioactive iodinated somatostatin (SRIF-14) binding, CHO cells expressing SSTR 5. To be noted: read-out: percent inhibition of radioactive iodinated somatostatin (SRIF-14) binding, SSTR 5; for inhibition at 1 µM: Conc. 10^-6 M; for inhibition at 0.1 µM: Conc. 10^-7 M; for inhibition at 0.01 µM: Conc. 10^-8 M. From the text:
(§1) The values presented are percent inhibition of radioactive iodinated somatostatin (SRIF-14) binding.

Series [2] addresses T4, Somatostatin Receptor (SSTR) Subtype SSTR 2B (Homo sapiens, UniProt P30874).
T4 construct: expressed in transfected cells; host or cells: CHO cells
Briefly: Inhibition of radioactive iodinated somatostatin (SRIF-14) binding, CHO cells expressing SSTR 2B. To be noted: read-out: percent inhibition of radioactive iodinated somatostatin (SRIF-14) binding, SSTR 2B; for inhibition at 1 µM: Conc. 10^-6 M; for inhibition at 0.1 µM: Conc. 10^-7 M; for inhibition at 0.01 µM: Conc. 10^-8 M.
Text: as §1

Series [3] is described as follows: Lack of toxicity of cyclized peptide analogs in rats. Format: in vivo. The source says:
These two doses are several orders of magnitude higher than those needed to elicit the desired endocrine effect. The peptides dissolved in saline produced no untoward side effects on the central nervous system, cardiovascular system, body temperature, nor on the periphery of the animals.

Series [4] can be described thus: In vitro biostability in human serum. Format: in vitro ADME. As to conditions: 37° C., HPLC determination of peptide degradation over time, compared with PTR 3001, octreotide, SRIF. On the procedure:
The in vitro biostability of a SST cyclic peptide analog, PTR 3002, was measured in human serum, and was compared to the same sequence in a non-cyclic peptide analog (PTR 3001), to octreotide (Sandostatin), and to native somatostatin (SRIF). […] The assay was based on HPLC determination of peptide degradation as a function of time at 37° C.

Where [5] appears, read: At 10^-6 M, guinea-pig ileum, BK 2×10^-8 M, atropine 1 μM present.

T4 sequence (P30874 1-356 isoform P30874-2): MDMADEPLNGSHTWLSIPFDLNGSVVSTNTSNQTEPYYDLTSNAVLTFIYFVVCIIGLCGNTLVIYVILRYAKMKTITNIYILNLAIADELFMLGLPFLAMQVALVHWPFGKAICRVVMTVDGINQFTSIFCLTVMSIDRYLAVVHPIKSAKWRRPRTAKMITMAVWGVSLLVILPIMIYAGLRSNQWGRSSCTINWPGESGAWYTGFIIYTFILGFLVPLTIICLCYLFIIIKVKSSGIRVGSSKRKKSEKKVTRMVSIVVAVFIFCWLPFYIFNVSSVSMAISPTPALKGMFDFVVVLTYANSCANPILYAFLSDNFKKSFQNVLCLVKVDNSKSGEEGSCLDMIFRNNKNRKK
T3 sequence (P35346 whole entry): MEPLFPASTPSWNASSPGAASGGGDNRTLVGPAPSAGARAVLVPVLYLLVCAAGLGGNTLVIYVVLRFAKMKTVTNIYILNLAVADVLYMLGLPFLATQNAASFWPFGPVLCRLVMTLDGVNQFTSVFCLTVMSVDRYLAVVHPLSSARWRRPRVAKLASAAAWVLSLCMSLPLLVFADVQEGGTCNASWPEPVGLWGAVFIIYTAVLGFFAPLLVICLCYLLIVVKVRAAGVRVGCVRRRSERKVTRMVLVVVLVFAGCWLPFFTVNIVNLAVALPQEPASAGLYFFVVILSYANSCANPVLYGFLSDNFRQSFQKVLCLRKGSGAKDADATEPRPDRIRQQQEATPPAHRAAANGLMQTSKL

As a reminder, the EC50 is the concentration at which the effect is half-maximal. Turning to `NC(N)=NCCC[C@H](NC(=O)[C@H](Cc1ccccc1)NC(=O)[C@@H]1CCCN1C(=O)[C@H](CO)NC(=O)[C@H](Cc1ccccc1)NC(=O)CNC(=O)[C@@H]1CCCN1C(=O)[C@@H]1CCCN1C(=O)[C@@H](N)CCCN=C(N)N)C(=O)O` [BK, Arg^1 -Pro^2 -Pro^3 -Gly^4 -Phe^5 -Ser^6 -Pro^7 -Phe^8 -Arg^9, reference compound] (H-RPPGFSPFR-OH), on BK2 receptors, the EC50 is 20 nM.
Turning to “Ada-(D)Arg-Arg-cyclo(N^α (1-(6-aminohexylene)Gly-Hyp-Phe-D-Asp)-D-Phe-Phe-Arg-OH [Example 1]”, the figures for the “inhibition of BK activity” value on BK2 receptors and against bradykinin receptors were 24% and 30%, respectively.
One may read the inhibition as the drop in the measured response relative to a control, in per cent. On to `C[C@@H](O)[C@H](NC(=O)CN1CCCNC(=O)CCN(C(=O)[C@H](N)Cc2ccccc2)CC(=O)N[C@@H](Cc2ccccc2)C(=O)N[C@H](Cc2c[nH]c3ccccc23)C(=O)N[C@@H](CCCCN)C(=O)N[C@@H]([C@@H](C)O)C1=O)C(N)=O` [PTR 3007] (H-[dF][N(CH2CH2CO)Gly]F[dW]KT[NGly(3-aminopropyl)]T-NH2; lactam 2-7), for which, in series [1], the inhibition at 1 µM was 19%, the inhibition at 0.1 µM amounted to 9% and the inhibition at 0.01 µM stood at 0%. In series [2], the inhibition at 1 µM worked out at 0%, the inhibition at 0.1 µM is 0% and the inhibition at 0.01 µM was determined as 0%. The “respiratory disturbances, stereotyped behavior, muscle tone” value in series [3] (rats observed for 4 hours post administration) is on record as “produced no respiratory disturbances, did not result in the appearance of stereotyped behavior, or produce any changes in muscle tone”. The tolerability entry in series [3] (rats, 1.5 mg/kg, single intraperitoneal application) is “well tolerated”.
With “Ada-D-Arg-Arg-N^α (6-acetamidohexylene)Gly-Hyp-Phe-D-Asp(NH-Me)-D-Phe-Phe-Arg-OH [Example 2]”, the “inhibition of BK activity” value on BK2 receptors (setting [5]) and on bradykinin receptors was 0% in each case.
Regarding “H-D-Arg-Arg-cyclo(N^α (4-propanoyl)Gly-Hyp-Phe-N^α (3-amido-propyl)-S-Phe)-Ser-D-Phe-Phe-Arg-OH [Example 4]”, the “inhibition of BK activity” value against BK2 receptors (setting [5]) and on bradykinin receptors was 17% each time.
`C[C@@H](O)[C@H](NC(=O)CN1CCC(=O)NCCCN(C(=O)[C@H](N)Cc2ccccc2)CC(=O)N[C@@H](Cc2ccccc2)C(=O)N[C@H](Cc2c[nH]c3ccccc23)C(=O)N[C@@H](CCCCN)C(=O)N[C@@H]([C@@H](C)O)C1=O)C(N)=O` [PTR 3010] (H-[dF][NGly(3-aminopropyl)]F[dW]KT[N(CH2CH2CO)Gly]T-NH2; lactam 2-7): in series [1], the inhibition at 1 µM was found to be 63%, the inhibition at 0.1 µM worked out at 26% and the inhibition at 0.01 µM stood at 9%. In series [2], the inhibition at 1 µM amounted to 0%, the inhibition at 0.1 µM was 0% and the inhibition at 0.01 µM amounted to 0%.
Regarding `C[C@@H](O)[C@H](NC(=O)CN1CCNC(=O)CCN(C(=O)[C@H](N)Cc2ccccc2)CC(=O)N[C@@H](Cc2ccccc2)C(=O)N[C@H](Cc2c[nH]c3ccccc23)C(=O)N[C@@H](CCCCN)C(=O)N[C@@H]([C@@H](C)O)C1=O)C(N)=O` [PTR 3002] (H-[dF][N(CH2CH2CO)Gly]F[dW]KT[N(2-Aminoethyl)Gly]T-NH2; lactam 2-7), the “in vitro biostability in human serum” value in series [4] is “as stable as octreotide, is more stable than the corresponding non-cyclic structure, and is much more stable than SRIF”.
Consider `C[C@@H](O)[C@H](NC(=O)CN1CCCNC(=O)CN(C(=O)[C@H](N)Cc2ccccc2)CC(=O)N[C@@H](Cc2ccccc2)C(=O)N[C@H](Cc2c[nH]c3ccccc23)C(=O)N[C@@H](CCCCN)C(=O)N[C@@H]([C@@H](C)O)C1=O)C(N)=O` [PTR 3004], for which, in series [1], the inhibition at 1 µM amounted to 14%, the inhibition at 0.1 µM was 0% and the inhibition at 0.01 µM came out at 0%. In addition, in series [2], the inhibition at 1 µM amounted to 0%, the inhibition at 0.1 µM is 0% and the inhibition at 0.01 µM came out at 0%.
With `C[C@@H](O)[C@H](NC(=O)CNC(=O)[C@@H](NC(=O)[C@H](CCCCN)NC(=O)[C@@H](Cc1c[nH]c2ccccc12)NC(=O)[C@H](Cc1ccccc1)NC(=O)CNC(=O)[C@H](N)Cc1ccccc1)[C@@H](C)O)C(N)=O` [PTR 3003] (H-[dF]GF[dW]KTGT-NH2), in series [1], the inhibition at 1 µM came to 55%, the inhibition at 0.1 µM is 20% and the inhibition at 0.01 µM was determined as 0%. In addition, in series [2], the inhibition at 1 µM came out at 16%, the inhibition at 0.1 µM worked out at 3% and the inhibition at 0.01 µM came to 0%.
For the compound “H-D-Arg-Arg-cyclo(N^α (1-(4-propanoyl))Gly-Hyp-Phe-N^α (3-amido-propylene)Gly)-Ser-D-Phe-Phe-Arc-OH [Example 3]”, the “inhibition of BK activity” value against BK2 receptors (setting [5]) is 10%.
